Data published in PubChem BioAssay AID1259332 (Broad Institute, 2017).
The source made the active and inactive calls. No rule for the calls is given here.

The compounds below were run on B cell line, CD40 signaling inhibition reporter (assay: inhibitors of CD40 signaling, dose response, B cell lineage (AID 1259332);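 also: cells stimulated with CD40 ligand tCD40L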).

Row | SMILES | AC50
1 | CC(C)(C)OC(=O)CC(S(=O)(=O)c1ccccc1)S(=O)(=O)c1ccccc1 | 0.95 µM
2 | COc1ccc(C(=O)CCN2CCc3cc(OC)c(OC)cc3C2)cc1 | 5.82 µM
3 | N#C[C@@H]1[C@H](c2ccc(C#Cc3ccccc3F)cc2)[C@@H](CO)N1C(=O)C1CC1 | 1.59 µM
4 | CC=Cc1cc2c(c(=O)o1)C(=O)C(O)C(C)O2 (configuration not stated) | > 20 µM (inactive)
5 | CC(C)(C)c1cc(C=C(C#N)C#N)cc(C(C)(C)C)c1O | 0.524 µM
6 | CC(C)(C)[C@H](N)C(=O)N[C@H]1CCC2C3CC=C4C[C@@H](O)CC[C@]4(C)C3CC[C@@]21C (some centres not stated) | 5.04 µM
7 | Cc1nc(C)c(C(=O)Nc2ncc([N+](=O)[O-])s2)o1 | 9.08 µM
8 | O=C1NC2c3c(Cl)sc(Cl)c3C(=O)C2O1 (configuration not stated) | 7.36 µM
9 | C=CC[n+]1c(/C=C2\C=Cc3cc(C)ccc3N2CC)ccc2ccccc21 | 2.7 µM
10 | C[C@H]1CN([C@@H](C)CO)C(=O)c2c(c3ccccc3n2C)-c2ccccc2CO[C@@H]1CN(C)C(=O)Nc1cccc(C(F)(F)F)c1 | 11.1 µM
11 | COc1ccccc1NC(c1cccnc1)c1ccc2cccnc2c1O (configuration not stated) | 8.25 µM
12 | C=C1C(=O)C23C(O)C1CCC2C12CCCC(C)(COC(C)=O)C1C(O)C3(O)OC2 (configuration not stated) | 0.567 µM
13 | N#C[C@@H]1[C@H](c2ccc(C#Cc3ccc(F)cc3)cc2)[C@@H](CO)N1C(=O)C1CCC1 | 4.71 µM
14 | CC1=C(O)C(=O)C=C2C1=CC=C1C2(C)CCC2(C)C3CC(C)(C(=O)O)CCC3(C)CCC12C (configuration not stated) | 0.888 µM
15 | O=C(NCCc1ccccc1)c1ccc2nccnc2c1 | 6.02 µM
16 | O=C1C=CC2C3C(=O)N(c4ccccc4)C(=O)C3C1N2Cc1ccccc1 (configuration not stated) | 1.8 µM
17 | CC(NCC(O)COCCC12CC3CC(CC(C3)C1)C2)c1ccccc1 (configuration not stated) | 4.88 µM
18 | C[C@H](CO)N1C[C@H](C)[C@H](CN(C)C(=O)C2CCOCC2)Oc2ncc(C#CCc3ccccc3)cc2C1=O | 9.51 µM
19 | COc1cc2c(cc1OC)C(=O)C(Br)CC2 (configuration not stated) | 3.76 µM
20 | C[C@H]1CN([C@@H](C)CO)C(=O)c2c(c3ccccc3n2C)-c2ccccc2CO[C@@H]1CN(C)Cc1cccc(C(F)(F)F)c1 | 2.17 µM
21 | N#C[C@@H]1[C@H](c2ccc(C#CC3CCCCC3)cc2)[C@@H](CO)N1S(=O)(=O)c1ccccc1 | 2.28 µM
22 | COc1ccc(S(=O)(=O)N(C)C[C@H]2Oc3ccc(NC(=O)Nc4ccc(C(F)(F)F)cc4)cc3C(=O)N([C@H](C)CO)C[C@H]2C)cc1 | 10.5 µM
23 | Cc1ccc(O)c(N=Nc2ccccc2)n1 | 8.46 µM

Row | SMILES | AC50
24 | [O-]C(=C(C(=S)Nc1cccc2ccccc12)[n+]1ccccc1)c1ccc2c(c1)OCCO2 | > 20 µM (inactive)
25 | CC(C)c1ccc(NC(=O)Nc2nc(C(N)COCc3ccccc3)cs2)cc1 (configuration not stated) | 2.62 µM
26 | Cc1ccc(S(=O)(=O)C=CS(=O)(=O)c2ccc(C)cc2)cc1 | 0.996 µM
27 | CCN1/C(=C/c2sc(-c3ccccc3C)c[n+]2C)Sc2ccccc21 | 1.91 µM
28 | Oc1c(Cl)cc(Cl)cc1Sc1cc(Cl)cc(Cl)c1O | 7.67 µM
29 | Cc1noc(C)c1S(=O)(=O)Nc1ccc2c(c1)CC(=O)N([C@@H](C)CO)C[C@@H](C)[C@@H](CN(C)Cc1ccc(Oc3ccccc3)cc1)O2 | 7.39 µM
30 | CC(C)OC(=O)c1cn(Cc2c(F)cccc2F)c2sc(-c3ccc(NC(=O)C(C)C)cc3)c(CN(C)Cc3ccccc3)c2c1=O | > 20 µM (inactive)
31 | CN(C)c1ccc(C(=C2C=CC(=[N+](C)C)C=C2)c2ccc(N(C)C)cc2)cc1 | 0.105 µM
32 | Cc1ccc(S(=O)(=O)N[C@@H](Cc2ccccc2)C(=O)CCl)cc1 | 2.99 µM
33 | O=C(Nc1ccc(C(F)(F)F)cc1)N1C[C@@H]2N[C@H](C1)C2c1ccc(-c2ccccc2)cc1 (some centres not stated) | 7.26 µM
34 | CC1CC(C)(O)CC(C(O)CC2CC(=O)NC(=O)C2)C1=O (configuration not stated) | 0.0973 µM
35 | O=C(COC(=O)c1ccccc1)c1ccc2c(c1)OCCO2 | 0.926 µM
36 | c1ccn2cc(-c3ccc4c(c3)OCCO4)nc2c1 | 10.2 µM
37 | COc1cccc(C#Cc2ccc([C@H]3[C@@H](C#N)N(C(=O)c4ccccn4)[C@@H]3CO)cc2)c1 | 5.81 µM
38 | CCC(C)(O)C(=O)OC1C(=O)OC2CC3C(C)=CC(=O)C(O)C3(C)C3C4(O)OCC23C1C(C)C4O (configuration not stated) | 0.0299 µM
39 | CN(C)c1ccc(NC(=O)c2cnsn2)cc1 | 6.15 µM
40 | CC1CC(C)C(=O)C(C(O)CC2CC(=O)NC(=O)C2)C1 (configuration not stated) | 0.196 µM
41 | Oc1ccc2c(c1)OCC1(O)Cc3cc(O)c(O)cc3C21 (configuration not stated) | 2.81 µM
42 | Cc1cccc(-c2nc3cc(NC(=O)C4CCCO4)ccc3o2)c1 (configuration not stated) | > 20 µM (inactive)
43 | C[C@@H]1CN([C@H](C)CO)C(=O)c2ccccc2-c2ccccc2CO[C@@H]1CN(C)C(=O)c1cc(Cl)cc(Cl)c1 | 7.99 µM
44 | COc1ccc2c3c([nH]c2c1)[C@H](CO)N(C(=O)Nc1ccc(F)cc1)CC31CCN(C(=O)c2ccccc2F)CC1 | 6.92 µM
45 | CC[N+]1(C)CCC(O)(c2ccc(OC)cc2)C(C(=O)c2ccc(OC)cc2)C1 (configuration not stated) | 3.75 µM
46 | COC(=O)C1=C(C(=O)OC)C2OC1c1cc3ccccc3cc12 | 0.738 µM

Row | SMILES | AC50
47 | COC1=CC(=O)c2c(ccc3ncnc(N)c23)C1=O | 1.66 µM
48 | Clc1ccc(CSC(Cn2ccnc2)c2ccc(Cl)cc2Cl)cc1 (configuration not stated) | > 20 µM (inactive)
49 | CC(=NNc1ccc2ccccc2n1)c1ccccc1O | 2.94 µM
50 | CS(=O)(=O)c1ccc(C(=O)OCC(=O)NC(=O)C2COc3ccccc3O2)cc1[N+](=O)[O-] (configuration not stated) | 10.2 µM
51 | CC1OC(OC2CC(O)C3(CO)C4C(O)CC5(C)C(C6=CC(=O)OC6)CCC5(O)C4CCC3(O)C2)C(O)C(O)C1O (configuration not stated) | 0.405 µM
52 | c1ccc2sc(-c3ccc4c(c3)OCO4)nc2c1 | 8.5 µM
53 | C[C@H]1CN([C@@H](C)CO)C(=O)c2c(c3ccccc3n2C)-c2ccccc2CO[C@H]1CN(C)C(=O)Nc1ccccc1C(F)(F)F | > 20 µM (inactive)
54 | O=S(=O)(/C(=C\c1ccc(C(F)(F)F)cc1)c1nc2ccccc2[nH]1)c1ccccc1 | 2.26 µM
55 | Cc1ccc(CN2CC(C(=O)Nc3ncc(C)s3)CC2=O)cc1 (configuration not stated) | 4.99 µM
56 | NC(=O)c1c(Br)n(C2OC(CO)C(O)C2O)c2ncnc(N)c12 (configuration not stated) | 3.84 µM
57 | N#C[C@@H]1[C@H](c2ccc(C#CC3CCCC3)cc2)[C@@H](CO)N1C(=O)Nc1ccc(F)cc1 | > 20 µM (inactive)
58 | CCCNC(=O)N1[C@H](C#N)[C@H](c2ccc(C3=CCCCC3)cc2)[C@@H]1CO | > 20 µM (inactive)
59 | CC[C@H]1CN2CCc3cc(OC)c(OC)cc3C2C[C@@H]1CC1NCCc2cc(OC)c(OC)cc21 (some centres not stated) | 0.0205 µM
60 | C[C@@H]1CN([C@@H](C)CO)C(=O)c2c(c3ccccc3n2C)-c2ccccc2CO[C@H]1CN(C)C(=O)Nc1ccccc1C(F)(F)F | 9.28 µM
61 | COCC(=O)N1[C@H](C#N)[C@H](c2ccc(C#Cc3ccccc3F)cc2)[C@H]1CO | 0.856 µM
62 | OC(c1cc(-c2cccc(Cl)c2)nc2ccccc12)C1CCCCN1 (configuration not stated) | 4.14 µM
63 | CC(=O)NC12CC3CC(C1)CC(C(=O)OCC(=O)c1ccc4c(c1)OCCO4)(C3)C2 | 6.31 µM
64 | COc1ccc(C(=O)O/N=C2\C(=O)N(C)c3ccccc32)cc1 | 1.84 µM
65 | C[C@H]1O[C@@H](O[C@H]2[C@@H](O)C[C@H](O[C@H]3[C@@H](O)C[C@H](O[C@H]4CC[C@]5(C)C6CC[C@]7(C)[C@@H](C8=CC(=O)OC8)CC[C@]7(O)C6CC[C@@H]5C4)O[C@@H]3C)O[C@@H]2C)C[C@H](O)[C@@H]1O (some centres not stated) | 0.929 µM
66 | COc1c(-c2coc3cc4c(cc3c2=O)CC(O)C(C)(C)O4)ccc2c1C=CC(C)(C)O2 (configuration not stated) | > 20 µM (inactive)
67 | O=S(=O)(CCSc1ccccn1)c1nc2ccccc2s1 | 8.22 µM
68 | CCOc1ccc(OCc2cccc(C(=O)N3CCOCC3)c2)cc1 | 2.92 µM
69 | C=C1C(=O)O[C@H]2[C@H]1CC/C(C)=C/CC[C@@]1(C)O[C@@H]21 | 4.54 µM

Row | SMILES | AC50
70 | O=C(NC(=S)/C(=C1\CCCCCN1)[N+](=O)[O-])c1ccccc1 | 3.07 µM
71 | CC1=C(SCCO)C(=O)c2ccccc2C1=O | 2.6 µM
72 | CCC(=O)O[C@]1(C(=O)CCl)[C@@H](C)C[C@H]2[C@@H]3CCC4=CC(=O)C=C[C@]4(C)[C@@]3(F)[C@@H](O)C[C@@]21C | > 20 µM (inactive)
73 | CN1C(=O)c2cc(NC(=O)c3cccc(Cl)c3)ccc2OC[C@@H]2O[C@@H](CC(=O)NC3CCCCC3)CC[C@H]21 | > 20 µM (inactive)
74 | CCc1cnc(N2[C@H](C#N)[C@H](c3ccc(C#Cc4ccccc4F)cc3)[C@H]2CO)s1 | 9.09 µM
75 | C[C@@H]1CN([C@@H](C)CO)C(=O)c2c(c3ccccc3n2C)-c2ccccc2CO[C@H]1CN(C)Cc1cccc(C(F)(F)F)c1 | 10.7 µM
76 | C=C1C(=O)OC2C=C(CO)C3OC3C3OC3(C)CC(OC(=O)/C(=C/C)COC(C)=O)C12 (configuration not stated) | 2.02 µM
77 | COc1ccc(S(=O)(=O)Nc2ccc3c(c2)C(=O)N([C@H](C)CO)C[C@H](C)[C@@H](CN(C)Cc2ccc(C(F)(F)F)cc2)OCCCC[C@@H](C)O3)cc1 | 11.4 µM
78 | CC1CC(C)CC(C)C(O)C(C#N)=CC=CCC(C2CCCC2C(=O)O)OC(=O)CC(O)C(C)C1 (configuration not stated) | < 0.0005 µM
79 | N#C[C@@H]1[C@H](c2ccc(C#CC3CCCCC3)cc2)[C@H](CO)N1C(=O)Nc1ccc(F)cc1 | > 20 µM (inactive)
80 | Cc1ccccc1NC(=O)c1nc(S(C)(=O)=O)ncc1Cl | 1.68 µM
81 | CC1(C)C(=O)C=C[C@@]2(C)C1C(=O)C(=O)[C@]1(C)C2CC[C@@]2(C)[C@H](c3ccoc3)C[C@H]3O[C@]321 (some centres not stated) | 3.47 µM
82 | COC(=O)C1=C(C)NC(C)=C(C(=O)OCCCN2CCC(c3ccccc3)(c3ccccc3)CC2)[C@H]1c1cccc([N+](=O)[O-])c1 | 11.4 µM
83 | COc1ccc(/C=C/C(=O)Nc2ccccc2C(=O)O)cc1OC | 6.12 µM
84 | Cc1cc(OCC(=O)OCC(=O)NCc2ccco2)ccc1Cl | 9.63 µM
85 | N#C[C@@H]1[C@H](c2ccc(C#CC3CCCC3)cc2)[C@H](CO)N1C(=O)Cc1ccccn1 | 9.08 µM
86 | N#C[C@@H]1[C@H](c2ccc(C#CC3CCCCC3)cc2)[C@@H](CO)N1C(=O)Nc1ccc(F)cc1 | 10.4 µM
87 | CC(=O)O[C@@H]1C[C@@]2(C)[C@H](c3ccoc3)C[C@H]3O[C@]32[C@]2(C)C(=O)C(=O)C3C(C)(C)C(=O)C=C[C@]3(C)C12 (some centres not stated) | 1.22 µM
88 | Cn1cnc([N+](=O)[O-])c1S(=O)(=O)Oc1cccc2ccccc12 | 0.368 µM
89 | Oc1c(Cl)cc(Cl)c(Cl)c1Cc1c(O)c(Cl)cc(Cl)c1Cl | 3.6 µM
90 | C[C@@H]1CN([C@@H](C)CO)C(=O)Cc2cc(NS(=O)(=O)c3ccc(F)cc3)ccc2O[C@H]1CN(C)Cc1ccc(C(F)(F)F)cc1 | 3.75 µM
91 | COc1cc2cc(C(=O)N3CC(COS(C)(=O)=O)c4ccc(O)cc43)[nH]c2c(OC)c1OC (configuration not stated) | 0.00741 µM
92 | CC[C@@]1(O)C(=O)OCc2c1cc1n(c2=O)Cc2cc3cc(O)ccc3nc2-1 | 1.33 µM
